Here are results for 13 compounds from ChEMBL document CHEMBL3352750, “Novel indole based NNRTIs with improved potency against wild type and resistant HIV” (Bioorg Med Chem Lett, 2014).

Data set [1] deals with Human immunodeficiency virus 1. The experiment in a line: Antiviral activity against HIV1 infected in HEK293T cells by p24 ELISA based phenotypic assay. The following applies: Human immunodeficiency virus 1, HEK-293T. The format is functional, organism-based. (In an ELISA, binding on a coated surface is turned into a signal by an enzyme label.)
Data set [2] is described as follows: Cytotoxicity against HEK293T cells. The format is cell-based, HEK-293T. The following applies: human.
The subject of data set [3] is Human immunodeficiency virus 1. Briefly: Antiviral activity against HIV1 containing reverse transcriptase V106M mutant infected in HEK293T cells by p24 ELISA based phenotypic assay. The following applies: HEK-293T. The format is functional, organism-based.
Data set [4] concerns Human immunodeficiency virus 1. Briefly: Antiviral activity against HIV1 containing reverse transcriptase Y181C mutant infected in HEK293T cells by p24 ELISA based phenotypic assay. The format is functional, organism-based. As to conditions: HEK-293T.
In data set [5] the test system is Human immunodeficiency virus 1. The experiment in a line: Antiviral activity against HIV1 containing reverse transcriptase G190A mutant infected in HEK293T cells by p24 ELISA based phenotypic assay. The format is functional, organism-based. The following applies: HEK-293T.
Data set [6] relates to Human immunodeficiency virus 1. The experiment in a line: Antiviral activity against HIV1 containing reverse transcriptase K103N mutant infected in HEK293T cells by p24 ELISA based phenotypic assay. The format is functional, organism-based. The following applies: HEK-293T.
Data set [7] has as its system Human immunodeficiency virus 1. The experiment in a line: Antiviral activity against HIV1 containing reverse transcriptase K101P mutant infected in HEK293T cells by p24 ELISA based phenotypic assay. The format is functional, organism-based. As to conditions: HEK-293T.
For data set [8], the system named is Human immunodeficiency virus 1. Briefly: Antiviral activity against HIV1 containing reverse transcriptase E138Q mutant infected in HEK293T cells by p24 ELISA based phenotypic assay. Type of data set: functional, organism-based. As to conditions: HEK-293T.
Data set [9] relates to Human immunodeficiency virus 1. Briefly: Antiviral activity against HIV1 containing reverse transcriptase Y181I mutant infected in HEK293T cells by p24 ELISA based phenotypic assay. Type of data set: functional, organism-based. As to conditions: HEK-293T.
Data set [10] deals with Human immunodeficiency virus 1. The experiment in a line: Antiviral activity against HIV1 containing reverse transcriptase M230I mutant infected in HEK293T cells by p24 ELISA based phenotypic assay. As to conditions: HEK-293T. Type of data set: functional, organism-based.
Data set [11] concerns Human immunodeficiency virus 1. The experiment in a line: Antiviral activity against HIV1. Type of data set: functional, organism-based.

Active and inactive are the calls of the source. No cut-off for these calls is given here.

Take `CCOC(=O)c1[nH]c2ccc(Cl)cc2c1C(O)c1ccccc1` (centres undefined): half-maximal inhibition in data set [1] (IC50) was put at 1150 nM. Also, the CC50 (in general, the concentration that lowers cell viability or growth by half) in data set [2] came out at 22.7 µM.

Consider `CCOC(=O)c1[nH]c2ccc(Cl)cc2c1C(OC)c1cc(C)cc(C)c1` (centres undefined), for which the IC50 (commonly the concentration at which inhibition is half-maximal) in [1] amounted to 30 nM. The inhibition result in data set [3], in data set [5], in data set [6], in data set [7], in data set [8] and in data set [9] was “Active” in each case. The inhibition entry in data set [10] was “Active”. Further, the inhibition result in data set [4] was “inactive”. In [2], this compound gave a CC50 of 36.5 µM.

Turning to `CCOC(=O)c1[nH]c2ccc(Cl)cc2c1C1(c2cccs2)CC1`, the IC50 in data set [11] amounted to 65 nM.

`O=C(NCCO)c1[nH]c2ccc(Cl)cc2c1C1(c2ccccc2)CC1` gave an IC50 in [1] of 209 nM.

Regarding `CCOC(=O)c1[nH]c2ccc(Cl)cc2c1C1(c2ccccc2)CC1`, the IC50 in data set [11] is 85 nM; in [1] it was 4800 nM.

Turning to `COC(c1ccccc1)c1c[nH]c2ccc(Cl)cc12` (centres undefined), in data set [1], the IC50 was 2430 nM. This compound showed a CC50 in data set [2] of 67 µM.

As to `Cc1ccnc2c1NC(=O)c1cccnc1N2C1CC1` [NEVIRAPINE], the results for the IC50 in data set [11] and in data set [1] were 100 nM and 120 nM, respectively.

With `O=C(OCCO)c1[nH]c2ccc(Cl)cc2c1C1(c2ccccc2)CC1`, the IC50 in [1] stood at 712 nM.

`COC(c1ccccc1)c1c(S(=O)(=O)C(F)(F)F)[nH]c2ccc(Cl)cc12` (centres undefined): it took 1200 nM to reach half-maximal inhibition in [1] (IC50). This compound also showed a CC50 in data set [2] of 24.2 µM.

Turning to `NNC(=O)c1[nH]c2ccc(Cl)cc2c1C1(c2ccccc2)CC1`, in [1], the midpoint of inhibition, the IC50, lay at 4400 nM.

In the case of `CCOC(=O)c1[nH]c2ccc(Cl)cc2c1C(OC)c1ccccc1` (centres undefined), 20 nM corresponded to half-maximal inhibition in data set [1] (IC50). The inhibition result in [3], in [4] and in data set [6] was “inactive” throughout. The inhibition entry in data set [5] is “Active”. In data set [2], the CC50 is 25.3 µM.

`CCOC(=O)c1[nH]c2ccc(Cl)cc2c1C(OCC)c1ccccc1` (centres undefined) yielded an IC50 in data set [1] of 30 nM. Moreover, half-maximal cytotoxicity in data set [2] (CC50) was put at 22.8 µM.

The compound `COC(c1cc(C)cc(C)c1)c1c[nH]c2ccc(Cl)cc12` (centres undefined) yielded an IC50 in [1] of 300 nM. Half-maximal cytotoxicity in [2] (CC50) was put at 67.7 µM.
